Results from patent US11779590B2, “AMP-activated protein kinase activating compounds and uses thereof” (Skylark Bioscience LLC, priority 2020, dated 2023).

How the values were obtained:
[1] = dosed orally; cited from earlier work
[2] = system: HEK293 cells; assay: HEK293 cytotoxicity assay (CC50, CellTiterGlo); assay type: cell-based, human
Text: Some exemplary assays and examples for assessing therapeutic efficacy, e.g., anticancer effects, of exemplary compounds of the invention are described herein or well known in the art. HEK293 is a human kidney cell line, and efficacy on HEK293 is considered to be predictive of usefulness for therapeutic treatment.
HEK293 cells were obtained from American Type Culture Collection (ATCC) (Rockville Maryland). Cells were maintained in Dulbecco's modified Eagle's medium (DMEM) (Invitrogen, Carlsbad, CA) with 10% fetal bovine serum (FBS), 10 mM HEPES and 1 mM sodium pyruvate. Cells were grown at 37° C. in a humidified incubator with a gas phase of 5% C02. Cells were grown for 24 hours in a Tripleflask (NUNC) to ˜95% confluence and then resuspended for dispensing at 125,000 cells/mL of DMEM, 10% FBS, 10 mM Hepes and 1 mM sodium pyruvate.
HEK293 cells were seeded in 96 well microtiter plates at 10000 cells/well. After 24 hours of incubation an equal volume of fresh media containing test compounds at given concentrations was added. Plates were then incubated and cells were allowed to proliferate for 48 hours at 37° C., 95% humidity, and 5% C02. […] A solution of Promega CellTiterGlo (100 microliters) was added by Thermo Combi and the plates were allowed to sit for 10 minutes before reading on a Perkin-Elmer EnVision with US LUM settings for 0.1 sec per well. […]

NC(=O)c1ncn([C@@H]2O[C@H](CO)[C@@H](O)[C@H]2O)c1N [AICAR, 5-amino-1-D-ribofuranosyl-1H-imidazole-4-carboxamide]
bioavailability [1]: very low

COP(=O)(OC)OC[C@H]1O[C@@H](n2cnc(C(N)=O)c2N)[C@H](O)[C@@H]1O [SB00024]
activity on HEK293 cells (CC50 assay) ([2]; at 500 uM): inactive

NC(=O)c1ncn([C@@H]2O[C@H](COP(=O)(O)Oc3ccc([N+](=O)[O-])cc3)[C@@H](O)[C@H]2O)c1N [SB00039]
potency relative to AICAR on HEK293 cells ([2]; ratio of potency (CC50) versus AICAR): roughly 100 times
